Data taken from patent US5162218A, “Conjugated polypeptides and methods for their preparation” (The Regents of the University of California, priority 1991, dated 1992).

Columns and labels:
[1] = target: T1, MOPC315 IgA Fab fragment, thiolated Fab labeled with bromoketone 4 (thiol tethered at tyrosine 34L) (Mus musculus, UniProt P01729+P01822); assay: Ester cleavage assay; type: biochemical
T1 construct: Fab fragment, generated by treating the reduced and alkylated IgA with papain; made in house
Description: (§1) Cleavage of DNP coumarin esters 14 and 15 by the thiol-containing antibodies was assayed in the presence and absence of 0.1 μM NaCl, 50 mM sodium phosphate, pH 7.0, with 24 μM dithiothreitol at 10° C. The release of free coumarin was quantitated fluorometrically, exciting at 355 nm and measuring emission at 455 nm. The S-thiopyridyl Fab was first dialyzed against assay buffer, 30 min. prior to the assays, an aliquot of the thiopyridyl Fab (0.15 mg in 0.19 ml) was reduced with 3.8 mM dithiothreitol at 20° C. For each assay, reduced, thiolated Fab (15 μg in 18.8 μl) was diluted with assay buffer (2.95 ml) so that the net concentrations of thiolated Fab and of dithiothreitol were 0.1 μM and 24 μM, respectively. After equilibrating, the substrate was added (30 μl of a stock solution in acetonitrile) and the solution mixed for 10 sec. before monitoring fluorescence change. Antibody rates were corrected by subtracting the rate of cleavage in the absence of Fab.
(§2) The reaction kinetics are consistent with the formation of a Michaelis complex (FIG. 6). […] Neither the uncleaved affinity-labeled antibody nor the iodoacetamide-alkylated antibody accelerated the rate of the thiolysis reaction above the background rate. The stoichiometry of product release corresponded to 1.0 coumarin to 1.0 Fab-SH. […]

[2] = target: IgA MOPC315, underivatized; assay: Association of DNP ligands with the underivatized antibody; type: binding; settings: underivatized MOPC 315
Description: The following studies were carried out on the IgA MOPC315, which binds substituted 2,4-dinitrophenyl (DNP) ligands with association constants ranging from 5×10^4 to 10^6 M^-1 (Haselkorn et al. (1974) Biochemistry 13:2210). Although a three-dimensional structure is not available, the antibody combining site has been characterized by spectroscopic methods (UV, fluorometry, NMR), chemical modification, and amino acid sequencing of the variable region. Moreover, earlier affinity-labeling studies with reagents of varying structures (Givol and Wilcheck (1977) Meth. Enzy. 46:479; Givol et al. (1971) Biochemistry 10:3461; and Strausbauch et al. (1971) Biochemistry 10:4342) defined a number of reactive amino acid side chains in the vicinity of the combining site.
(§3) Fluorescence quenching experiments were carried out at 10° C. using 492 nm for excitation and measuring emission at 521 nm. The fluorescein-Fab adduct was diluted wi.:h assay buffer (50 mM NaCl. 50 mM sodium phosphate, pH 7.0) to 0.10 μM. Aliquots of 2,4-DNP-glycinewere added and, after mixing, the fluorescence observed. The association constant of DNP-glycine to the fluorescein-Fab adduct was determined to be 3.0×10^5 M^-1, almost identical to the KA of DNP-glycine to underivatized MOPC 315, 2.0×10^5 M^-1.

[3] = target: T2, MOPC315 IgA Fab fragment, thiolated Fab labeled with 2 (Fab-SH, thiol tethered at residue 52H of the heavy chain) (Mus musculus, UniProt P01729+P01822); assay: Ester cleavage (thiolysis) assay, fluorometric release of coumarin; type: biochemical
T2 construct: Fab fragment, generated by treating the reduced and alkylated IgA with papain; made in house
Description: as §1, §2

[4] = target: T3, MOPC315 fluorescein-Fab adduct (S-thiopyridyl Fab labeled with 2, derivatized with N-fluoresceinthioureido-2-mercaptoethylamine) (Mus musculus, UniProt P01729+P01822); assay: Fluorescence quenching binding assay; settings: 0.10 μM adduct, 50 mM NaCl, 50 mM sodium phosphate, pH 7.0, 10° C.; read-out: association constant (converted)
T3 construct: Fab fragment, generated by treating the reduced and alkylated IgA with papain; made in house
Description: FIG. 7 illustrates the results of a fluorescence quenching binding assay for DNP-glycine with fluorescein-Fab adduct (.quadrature.) versus control with fluorescein plus underivatized Fab ( ). Fluorescence quenching experiments were carried at 10° C. using 492 nm for excitation and measuring emission at 521 nm. The fluorescein-Fab adduct was diluted with assay buffer (above) to 0.10 μM. Aliquots of 2,4-DNP-glycine were added and, after mixing, the fluorescence observed. Free N-fluoresceinthioureido-2-mercapthoethylamine and underivatized Fab, each at 0.10 μM, were treated in a similar experiment.
as §3

[5] = target: T4, MOPC315 IgA Fab fragment (Mus musculus, UniProt P01729+P01822+P01844+P01878); assay: Affinity labeling of Fab (incorporation of cleavable affinity labels); type: binding; settings: for % Fab labeled (without DNP-glycine) / label incorporated: Fab 10 μM; for % Fab labeled (without DNP-glycine): 1.5 equivalents aldehyde plus NaCNBH3, pH 7.0, 37° C., 20 hours, or 1.3 equivalents α-bromoketone, pH 9.0, 37° C., 16 hours; for % Fab labeled (with DNP-glycine): as without, in the presence of 10 mM competitive inhibitor DNP-glycine; for label incorporated: 1.5 or 1.3 equivalents of label, 37° C.; for non-specific labeling: in the presence of 10 mM DNP-glycine
T4 construct: Fab fragment, generated by treating the reduced and alkylated IgA with papain; made in house
Description: The strategy for introducing a thiol into the binding site of MOPC315 is outlined in FIG. 3. These steps were carried out with the Fab fragment, generated by treating the reduced and alkylated IgA with papain followed by affinity chromatography on DNP-coupled Sepharose 4B (Goetzl (1970) Biochemistry 9:1267). The Fab fragment (at 10 μM) was treated with either 1.5 equivalents of aldehydes 1 or 2 for one hour followed by 7.5 equivalents of NaCNBH3, in 0.2M sodium phosphate; pH 7.0, at 37° C. for 20 hours, or with 1.3 equivalents of α-bromoketones 3, 4, or 5 in 0.1M sodium bicarbonate, pH 9.0; at 37° C. for 16 hours. In both cases, the labeled Fab was purified by chromatography on Sephadex G-50 in 0.1M sodium phosphate, pH 7.3, and, after lyophilization, subsequent affinity chromatography on DNP-coupled Sepharose 4B (Goetzl, supra.) to remove unlabeled or non-specifically labeled Fab. The extent of derivatization was quantitated spectrophotometrically (for labels 1 and 2, λmax =360 nm, , ε=12,800 M^-1 cm^-1) and additionally, for labels 1 and 2, by incorporation of tritium from NaCNB^3 H3 (using 12 mCi/millimole NaCNB^3 H3). […] In both cases, less than 10% non-specific labeling occurred in the presence of 10 mM of the competitive inhibitor DNP-glycine.

T4 sequence (P01822+P01878 fused): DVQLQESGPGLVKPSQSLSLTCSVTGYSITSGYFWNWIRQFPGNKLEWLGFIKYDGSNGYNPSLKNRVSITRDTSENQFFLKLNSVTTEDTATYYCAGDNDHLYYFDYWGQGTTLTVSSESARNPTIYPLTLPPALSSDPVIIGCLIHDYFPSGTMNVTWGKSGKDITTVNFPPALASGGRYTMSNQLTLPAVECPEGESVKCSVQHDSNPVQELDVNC
T4 sequence (P01729+P01844 fused): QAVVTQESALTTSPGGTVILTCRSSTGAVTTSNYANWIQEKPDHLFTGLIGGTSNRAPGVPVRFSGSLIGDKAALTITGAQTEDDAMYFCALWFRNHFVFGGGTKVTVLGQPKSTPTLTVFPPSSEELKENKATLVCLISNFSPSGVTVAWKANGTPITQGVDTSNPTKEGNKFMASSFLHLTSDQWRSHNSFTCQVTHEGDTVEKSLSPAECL
T2 sequence (P01822 19-137): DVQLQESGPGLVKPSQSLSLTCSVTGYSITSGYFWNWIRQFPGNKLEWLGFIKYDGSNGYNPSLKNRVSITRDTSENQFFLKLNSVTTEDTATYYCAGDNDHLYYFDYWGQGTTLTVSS
T2 sequence (P01729 20-129): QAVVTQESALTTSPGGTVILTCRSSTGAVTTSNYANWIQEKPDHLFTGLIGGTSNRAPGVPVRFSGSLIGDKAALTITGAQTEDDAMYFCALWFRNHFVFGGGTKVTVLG
T2 sequence (P01878 1-100 partner limits assumed): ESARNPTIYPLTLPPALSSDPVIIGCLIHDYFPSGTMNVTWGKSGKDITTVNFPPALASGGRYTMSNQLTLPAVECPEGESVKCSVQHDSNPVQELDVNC
T2 sequence (P01844 whole entry partner, the tested form may be a part): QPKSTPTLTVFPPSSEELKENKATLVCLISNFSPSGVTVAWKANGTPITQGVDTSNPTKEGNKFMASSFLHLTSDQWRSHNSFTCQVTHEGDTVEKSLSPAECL
T1 sequence (P01822 19-137): as the sequence (P01822 19-137) above
T1 sequence (P01729 20-129): as the sequence (P01729 20-129) above
T1 sequence (P01878 1-100 partner limits assumed): as the sequence (P01878 1-100 partner limits assumed) above
T1 sequence (P01844 whole entry partner, the tested form may be a part): as the sequence (P01844 whole entry partner, the tested form may be a part) above
T3 sequence (P01822 19-137): as the sequence (P01822 19-137) above
T3 sequence (P01729 20-129): as the sequence (P01729 20-129) above
T3 sequence (P01878 1-100 partner limits assumed): as the sequence (P01878 1-100 partner limits assumed) above
T3 sequence (P01844 whole entry partner, the tested form may be a part): as the sequence (P01844 whole entry partner, the tested form may be a part) above

Structure (SMILES)	% Fab labeled (without DNP-glycine) [5]	% Fab labeled (with DNP-glycine) [5]	further results
CC(=O)Oc1ccc([N+](=O)[O-])cc1[N+](=O)[O-] [DNP-acetate]	–	–	hydrolysis of ester by thiolated Fab [1]: did not hydrolyze
O=C(O)CNc1ccc([N+](=O)[O-])cc1[N+](=O)[O-] [DNP-glycine]	–	–	KA [2]: 200000 M⁻¹; Ki [3]: 8 µM; Kd [4]: 3.33 µM
O=CCCSSCCNc1ccc([N+](=O)[O-])cc1[N+](=O)[O-] [compound 1, (N-2,4-Dinitrophenyl)-2-aminoethyl 3-oxopropyl disulfide]	22%	5%	–
O=CCCCSSCCNc1ccc([N+](=O)[O-])cc1[N+](=O)[O-] [compound 2]	95%	10%	label incorporated [5]: over 90%; non-specific labeling [5]: less than 10%
O=C(CBr)CCSc1ccc([N+](=O)[O-])cc1[N+](=O)[O-] [compound 3, 1-Bromo-2-oxo-4-(S-DNP)-mercaptobutane]	0%	0%	–
O=C(CBr)CCCSc1ccc([N+](=O)[O-])cc1[N+](=O)[O-] [compound 4, 1-Bromo-2-oxo-5-(S-DNP)-mercaptopentane]	85%	0%	label incorporated [5]: over 90%; non-specific labeling [5]: less than 10%
O=C(CBr)CCCCSc1ccc([N+](=O)[O-])cc1[N+](=O)[O-] [compound 5, 1-Bromo-2=oxo-6-(S-DNP)-mercaptohexane]	15%	0%	–
O=C(CCNc1ccc([N+](=O)[O-])cc1[N+](=O)[O-])Oc1ccc2ccc(=O)oc2c1 [ester 14, (N-DNP)-3-Aminopropanoic acid 7-hydroxycoumarin ester]	–	–	acceleration of cleavage, factor over the cleavage reaction in equimolar dithiothreitol ([3]; pH 7.0, 10° C.): 6×10^4
